Structures can show the parent of a compound that is named as a salt.

Data set [1] has as its target T1, human vasopressin V1b receptor (Homo sapiens, UniProt P47901).
T1 construct: expressed in transfected cells; host or cells: CHO-K1 (cell line hV1b_3H2_CHO)
T1 sequence (P47901 1-424): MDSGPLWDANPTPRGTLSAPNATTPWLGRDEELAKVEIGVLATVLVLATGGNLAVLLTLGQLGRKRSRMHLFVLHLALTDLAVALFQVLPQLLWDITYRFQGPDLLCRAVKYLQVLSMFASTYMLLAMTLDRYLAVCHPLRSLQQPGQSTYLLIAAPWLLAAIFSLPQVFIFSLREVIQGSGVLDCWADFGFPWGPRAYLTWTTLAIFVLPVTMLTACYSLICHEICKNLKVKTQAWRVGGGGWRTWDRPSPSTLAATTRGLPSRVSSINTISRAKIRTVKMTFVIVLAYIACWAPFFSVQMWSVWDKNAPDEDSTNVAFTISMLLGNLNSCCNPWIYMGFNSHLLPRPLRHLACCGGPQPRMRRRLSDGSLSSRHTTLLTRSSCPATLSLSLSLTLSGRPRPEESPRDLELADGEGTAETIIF
Briefly: Vasopressin V1b receptor binding assay. The settings on record: read-out: Ki(h-V1b)*. The procedure:
1. Vasopressin V1b Receptor Binding Assay:
The substance concentration was further diluted 1:5 in the assay mixture (2% DMSO in the mixture).
All determinations were carried out as triplicate determinations.

The target of data set [2] is T2, recombinant human oxytocin receptors (Homo sapiens, UniProt P30559).
T2 construct: expressed in transfected cells; host or cells: HEK-293 (transient)
T2 sequence (P30559 1-389): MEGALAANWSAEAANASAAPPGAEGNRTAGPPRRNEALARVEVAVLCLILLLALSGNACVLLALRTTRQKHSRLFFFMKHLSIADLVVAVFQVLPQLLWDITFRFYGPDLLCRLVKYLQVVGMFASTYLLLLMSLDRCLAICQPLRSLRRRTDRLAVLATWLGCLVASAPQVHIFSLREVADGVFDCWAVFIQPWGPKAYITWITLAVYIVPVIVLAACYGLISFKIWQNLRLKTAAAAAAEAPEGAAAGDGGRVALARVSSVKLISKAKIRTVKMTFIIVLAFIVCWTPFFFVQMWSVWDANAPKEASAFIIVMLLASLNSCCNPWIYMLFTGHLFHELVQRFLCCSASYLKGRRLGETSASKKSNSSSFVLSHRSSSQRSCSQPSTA
The experiment in a line: Oxytocin receptor binding assay. The settings on record: selectivity quotient, human OT versus human V1b. The procedure: 4. Oxytocin Receptor Binding Assay
Confluent HEK-293 cells with transiently expressing recombinant human oxytocin receptors were centrifuged at 750×g at room temperature for 5 minutes. The residue was taken up in ice-cold lysis buffer (50 mM Tris-HCl, 10% glycerol, pH 7.4 and Roche complete protease inhibitor) and subjected to an osmotic shock at 4° C. for 20 minutes. The lyzed cells were then centrifuged at 750×g at 4° C. for 20 minutes, the residue was taken up in incubation buffer, and aliquots of 10^7 cells/ml were prepared. The aliquots were frozen at −80° C. until used.
On the day of the experiment, the cells were thawed, diluted with incubation buffer and homogenized using a Multipette Combitip (Eppendorf, Hamburg). […] The nonspecific binding was determined with 10^−6 M oxytocin (Bachem AG, H2510). Triplicate determinations were set up. Bound and free radioligand were separated by filtration under vacuum with Whatman GF/B glass fiber filters with the aid of a Skatron cell harvester 7000. The bound radioactivity was determined by liquid scintillation measurement in a Tricarb Beta counter, model 2000 or 2200CA (Packard).

A short description of data set [3]: Determination of the microsomal half-life / microsomal clearance (human liver microsomes). Format: in vitro ADME. The settings on record: pH 7.4, 0.5 μM test substance. The procedure:
5. Determination of the Microsomal Half-Life:
The metabolic stability of the compounds of the invention was determined in the following assay.
The test substances were incubated in a concentration of 0.5 μM as follows:
0.5 μM test substance are preincubated together with liver microsomes from different species (from rat, human or other species) (0.25 mg of microsomal protein/ml) in 0.05 M potassium phosphate buffer of pH 7.4 in microtiter plates at 37° C. for 5 min. The reaction is started by adding NADPH (1 mg/mL). After 0, 5, 10, 15, 20 and 30 min, 50 μl aliquots are removed, and the reaction is immediately stopped and cooled with the same volume of acetonitrile. The samples are frozen until analyzed. The remaining concentration of undegraded test substance is determined by MSMS. The half-life (T½) is determined from the gradient of the signal of test substance/unit time plot, it being possible to calculate the half-life of the test substance, assuming first order kinetics, from the decrease in the concentration of the compound with time. The microsomal clearance (mCl) is calculated from mCl=In2/T½/(content of microsomal protein in mg/ml)×1000 […] (modified from references: Di, The Society for Biomoleculur Screening, 2003, 453-462; Obach, DMD, 1999 vol. 27. N 11, 1350-1359).
A general note: Microsomes from liver hold many membrane-bound enzymes, among them those of drug oxidation.

Data set [4] deals with human vasopressin V1a receptor (Homo sapiens, UniProt P37288). Briefly: Vasopressin V1a receptor binding assay. To be noted: selectivity quotient, human V1a versus human V1b.
Sequence of human vasopressin V1a receptor (P37288 whole entry): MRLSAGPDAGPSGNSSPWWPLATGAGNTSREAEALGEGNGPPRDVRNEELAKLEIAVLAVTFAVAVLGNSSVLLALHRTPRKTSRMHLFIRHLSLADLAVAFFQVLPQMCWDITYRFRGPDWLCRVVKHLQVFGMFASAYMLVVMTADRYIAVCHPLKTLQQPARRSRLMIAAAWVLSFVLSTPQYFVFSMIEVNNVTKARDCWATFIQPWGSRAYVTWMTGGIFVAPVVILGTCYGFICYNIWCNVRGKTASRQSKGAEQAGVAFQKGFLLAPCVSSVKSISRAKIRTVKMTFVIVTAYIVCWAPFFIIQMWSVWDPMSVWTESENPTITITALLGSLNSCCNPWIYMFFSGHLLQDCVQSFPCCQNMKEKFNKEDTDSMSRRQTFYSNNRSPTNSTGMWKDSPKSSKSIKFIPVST

With `CCOc1ncccc1C1(OC(=O)N2CCN(C3CCN(C)CC3)CC2)C(=O)N(S(=O)(=O)c2ccccc2OC)c2ccc(C#N)cc21` (single isomer, unassigned; (-)) [Example 2B, (−)-5-Cyano-3-(2-ethoxypyridin-3-yl)-1-[(2-methoxyphenyl)sulfonyl]-2-oxo-2,3-dihydro-1H-indol-3-yl-4-(1-methylpiperidin-4-yl)piperazine-1-carboxylate], the Ki (usually a measure of affinity in units of concentration, obtained from inhibition or displacement) in data set [1] was below 10 nM. In data set [2], the “Ki(h-OT)/Ki(h-V1b)*” value is on record as “+++ (>45)”. Also, the microsomal CLint (usually the rate of metabolic loss divided by the concentration) at 0.5 μM in data set [3] lay within 75 to 200 µL/min/mg. In data set [4], the “Ki(h-V1a)/Ki(h-V1b)*” value is listed as “+++ (>75)”.
In the same order, the values of `CCOc1ncccc1C1(OC(=O)N2CCN(C3CCN(C)CC3)CC2)C(=O)N(S(=O)(=O)c2ccccc2)c2ccc(C#N)cc21` (single isomer, unassigned; (-)) [Example 4B, (−)-5-Cyano-3-(2-ethoxypyridin-3-yl)-2-oxo-1-(phenylsulfonyl)-2,3-dihydro-1H-indol-3-yl 4-(1-methylpiperidin-4-yl)piperazine-1-carboxylate] are below 10 nM, “+++ (>45)”, below 50 µL/min/mg and “+++ (>75)”.
The like results for `CCOc1ncccc1C1(OC(=O)N2CCC(N3CCNCC3)CC2)C(=O)N(S(=O)(=O)c2ccc(OC)cc2OC)c2ccc(C#N)cc21` (stereo not drawn) [Example 55, 5-Cyano-1-[(2,4-dimethoxyphenyl)sulfonyl]-3-(2-ethoxypyridin-3-yl)-2-oxo-2,3-dihydro-1H-indol-3-yl-4-piperazin-1-ylpiperidine-1-carboxylate as bis(trifluoroacetic acid) salt] were, in that order, below 10 nM, “+ (15-25)”, 75 to 200 µL/min/mg and “++ (>25-75)”.

For the origin of these results see patent US9422264B2, “Carbamate-substituted oxindole derivatives and use thereof for the treatment of vasopressin-dependent diseases” (AbbVie Deutschland GmbH & Co. KG, priority 2007, dated 2016).
